# Results published in PubChem BioAssay AID602165 (The Scripps Research Institute Molecular Screening Center, 2012).
# Biological target: Induced myeloid leukemia cell differentiation protein Mcl-1 (Homo sapiens) (UniProt Q07820)
# Experiment: blockers of MCL1–BIM BH3 interaction – biochemical, fluorescence polarization, assay provider data, round 3, late-stage follow-up (AID 602165)
# Details: GST-MCL1 / FITC-BIM-BH3 peptide fluorescence polarization
# Sequence of Induced myeloid leukemia cell differentiation protein Mcl-1 (Homo sapiens) (Q07820 whole entry, looked up): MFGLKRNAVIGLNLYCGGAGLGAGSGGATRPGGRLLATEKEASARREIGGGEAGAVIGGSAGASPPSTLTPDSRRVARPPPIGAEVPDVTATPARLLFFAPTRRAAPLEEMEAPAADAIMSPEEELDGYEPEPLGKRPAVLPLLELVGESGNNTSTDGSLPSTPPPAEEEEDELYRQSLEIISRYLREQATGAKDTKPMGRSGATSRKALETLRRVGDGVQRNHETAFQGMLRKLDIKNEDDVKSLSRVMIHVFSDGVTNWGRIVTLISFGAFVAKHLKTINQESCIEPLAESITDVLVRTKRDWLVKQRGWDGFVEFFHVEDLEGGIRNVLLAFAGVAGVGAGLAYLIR
row,SMILES,IC50 [µM]
1,CC(C)Oc1ccc(C(Nc2ccccn2)c2ccc3cccnc3c2O)cc1 (stereo not drawn),1.3
2,Oc1c(C(c2cccs2)N2CCCCC2)ccc2cccnc12 (stereo not drawn),2.5
3,Oc1c(C(c2cccs2)N2CCN(c3ccccn3)CC2)ccc2cccnc12 (stereo not drawn),0.5
4,Oc1c(C(Nc2ccccn2)c2cccs2)ccc2cccnc12 (stereo not drawn),0.6
5,CCN1CCN(C(c2cccs2)c2ccc3cccnc3c2O)CC1 (stereo not drawn),1.6
6,OCCN1CCN(C(c2cccs2)c2ccc3cccnc3c2O)CC1 (stereo not drawn),3.3
7,CN1CCN(C(c2ccc(F)cc2)c2ccc3cccnc3c2O)CC1 (stereo not drawn),0.6
8,Cc1ccnc(NC(c2cccs2)c2ccc3cccnc3c2O)c1 (stereo not drawn),0.4
